Results on 19 molecules are retold here after patent US5700804A, “Pharmaceutical compounds” (Xenova Limited, priority 1992, dated 1997).

The assay addresses PAI-1 (Homo sapiens, UniProt P05121). Kind of assay: PAI chromogenic substrate assay (first S2251 assay, tPA/plasminogen system). The class given is biochemical. On the procedure: In this assay, a compound is incubated with PAI-1 prior to addition to the tPA assay system. Inhibition of PAI-1 results in the production of plasmin from plasminogen. In turn, plasmin cleaves the chromogenic substrate S2251 (Kabi Vitrum) producing pNA (p-nitroaniline) which is detected spectrophotometrically at 405 nm (K. Nilsson et al, Fibrinolysis (1987) 1, 163-168).
Compounds of formula (A) were tested in a PAI chromogenic substrate assay. In the first assay (K. Nilsson, Fibrinolysis (1987) 1, 163-168) each compound was incubated with PAI-1 prior to addition to the tPA assay system. […] In turn, the plasmin cleaved the chromogenic substrate S2251 (Kabi-Vitrum) producing pNA (p-nitroaniline) which was detected spectrophotometrically at 405 nm.

Chain of PAI-1 (P05121 24-402): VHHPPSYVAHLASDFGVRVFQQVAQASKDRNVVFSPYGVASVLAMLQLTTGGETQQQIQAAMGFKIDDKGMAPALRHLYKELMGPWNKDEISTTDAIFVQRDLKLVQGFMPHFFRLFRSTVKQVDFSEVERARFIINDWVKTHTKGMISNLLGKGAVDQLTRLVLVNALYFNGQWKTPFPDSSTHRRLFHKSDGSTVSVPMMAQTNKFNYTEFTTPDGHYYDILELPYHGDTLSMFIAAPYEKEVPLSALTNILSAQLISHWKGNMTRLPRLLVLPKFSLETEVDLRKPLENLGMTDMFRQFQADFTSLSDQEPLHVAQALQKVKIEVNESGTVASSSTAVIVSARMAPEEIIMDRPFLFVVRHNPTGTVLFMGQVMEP

As for `CN(C)CCCOc1ccc(/C=c2\[nH]c(=O)/c(=C/c3ccccc3)[nH]c2=O)cc1` [Compound 98], the Inhibition of PAI-1 in the first S2251 chromogenic substrate assay (Concentration 6.25 μm) stood at 4%; the Inhibition of PAI-1 in the first S2251 chromogenic substrate assay (Concentration 12.5 μm) was 67%; the Inhibition of PAI-1 in the first S2251 chromogenic substrate assay (Concentration 25 μm) stood at 74%; the Inhibition of PAI-1 in the first S2251 chromogenic substrate assay (Concentration 50 μm) was determined as 71%; the Inhibition of PAI-1 in the first S2251 chromogenic substrate assay (Concentration 100 μm) came to 72%.
Consider `CC(C)Oc1ccc(/C=c2\[nH]c(=O)/c(=C/c3ccccc3)[nH]c2=O)cc1` [Compound 52, (3Z,6Z)-6-Benzylidene-3-(4-isopropoxybenzylidene)-2,5-piperazinedione], for which the Inhibition of PAI-1 in the first S2251 chromogenic substrate assay by setting is: (Concentration 12.5 μm) 2%; (Concentration 25 μm) 15%; (Concentration 50 μm) 45%; (Concentration 100 μm) 68%.
For `O=c1[nH]/c(=C\c2ccccc2Br)c(=O)[nH]/c1=C\c1ccccc1` [Compound 55, (3Z,6Z)-6-Benzylidene-3-(2-bromobenzylidene)-2,5-piperazinedione] the same measures were 1%, 11%, 43% and 65%.
For `CC(=O)Oc1ccccc1/C=c1\[nH]c(=O)/c(=C/c2ccccc2)[nH]c1=O` [Compound 32, (3Z,6Z)-3-(2-Acetoxybenzylidene)-6-benzylidene-2,5-piperazinedione], the Inhibition of PAI-1 in the first S2251 chromogenic substrate assay runs as follows: (Concentration 6.25 μm) 0%; (Concentration 12.5 μm) 1%; (Concentration 25 μm) 3%; (Concentration 50 μm) 36%; (Concentration 100 μm) 87%.
For the molecule `CC(=O)Nc1ccc(/C=c2\[nH]c(=O)/c(=C/c3ccccc3C(F)(F)F)[nH]c2=O)cc1` [Compound 78, (3Z,6Z)-6-(4-Acetamidobenzylidene)-3-(2-trifluoromethylbenzylidene)-2,5-piperazinedione], the Inhibition of PAI-1 in the first S2251 chromogenic substrate assay is, setting by setting: (Concentration 6.25 μm) 2%; (Concentration 12.5 μm) 4%; (Concentration 25 μm) 36%; (Concentration 50 μm) 57%; (Concentration 100 μm) 30%.
For `CC(=O)Nc1ccccc1/C=c1\[nH]c(=O)/c(=C/c2ccccc2)[nH]c1=O` [Compound 38, (3Z,6Z)-3-(2-Acetamidobenzylidene)-6-benzylidene-2,5-piperazinedione], the Inhibition of PAI-1 in the first S2251 chromogenic substrate assay is, setting by setting: (Concentration 6.25 μm) 1%; (Concentration 12.5 μm) 1%; (Concentration 25 μm) 1%; (Concentration 50 μm) 3%; (Concentration 100 μm) 64%.
With `CCOC(=O)CCCCC(=O)NCc1ccc(/C=c2\[nH]c(=O)/c(=C/c3ccccc3)[nH]c2=O)cc1` [Compound 95], the Inhibition of PAI-1 in the first S2251 chromogenic substrate assay (Concentration 6.25 μm) is 10%; the Inhibition of PAI-1 in the first S2251 chromogenic substrate assay (Concentration 12.5 μm) came out at 16%; the Inhibition of PAI-1 in the first S2251 chromogenic substrate assay (Concentration 25 μm) amounted to 45%; the Inhibition of PAI-1 in the first S2251 chromogenic substrate assay (Concentration 50 μm) amounted to 71%; the Inhibition of PAI-1 in the first S2251 chromogenic substrate assay (Concentration 100 μm) was 69%.
For the molecule `O=c1[nH]/c(=C\c2cccc([N+](=O)[O-])c2)c(=O)[nH]/c1=C\c1cccc([N+](=O)[O-])c1` [Compound 35, (3Z,6Z)-3,6-Di-(3-Nitrobenzylidene)-2,5-piperazinedione], the Inhibition of PAI-1 in the first S2251 chromogenic substrate assay is, setting by setting: (Concentration 25 μm) 2%; (Concentration 50 μm) 28%; (Concentration 100 μm) 52%.
`COc1ccc(/C=c2\[nH]c(=O)/c(=C/c3c(Cl)cccc3Cl)[nH]c2=O)cc1` [Compound 29, (3Z,6Z)-3-(2,6-Dichlorobenzylidene)-6-(4-methoxybenzylidene)-2,5-piperazinedione] returned an Inhibition of PAI-1 in the first S2251 chromogenic substrate assay (Concentration 6.25 μm) of 0%; an Inhibition of PAI-1 in the first S2251 chromogenic substrate assay (Concentration 12.5 μm) of 1%; an Inhibition of PAI-1 in the first S2251 chromogenic substrate assay (Concentration 25 μm) of 34%; an Inhibition of PAI-1 in the first S2251 chromogenic substrate assay (Concentration 50 μm) of 76%; an Inhibition of PAI-1 in the first S2251 chromogenic substrate assay (Concentration 100 μm) of 80%.
Take `CCCCOc1ccc(/C=c2\[nH]c(=O)/c(=C/c3ccccc3)[nH]c2=O)cc1` [Compound 48, (3Z,6Z)-6-Benzylidene-3-(4-butoxybenzylidene)-2,5-piperazinedione]: the Inhibition of PAI-1 in the first S2251 chromogenic substrate assay turned out to be 3% (Concentration 12.5 μm), 26% (Concentration 25 μm), 57% (Concentration 50 μm) and 73% (Concentration 100 μm).
For `CC(C)(C)c1ccc(/C=c2\[nH]c(=O)/c(=C/c3ccccc3)[nH]c2=O)cc1` [Compound 51, (3Z,6Z)-6-Benzylidene-3-(4-tert-butylbenzylidene)-2,5-piperazinedione] the same measures were 5%, 38%, 61% and 79%.
On to `CC(=O)NCc1ccc(/C=c2\[nH]c(=O)/c(=C/c3ccccc3)[nH]c2=O)cc1` [Compound 44, (3Z,6Z)-3-(4-Acetamidomethylbenzylidene)-6-benzylidene-2,5-piperazinedione], for which the Inhibition of PAI-1 in the first S2251 chromogenic substrate assay is, setting by setting: (Concentration 6.25 μm) 1%; (Concentration 12.5 μm) 1%; (Concentration 25 μm) 1%; (Concentration 50 μm) 2%; (Concentration 100 μm) 51%.
Turning to `CC(=O)Nc1ccc(/C=c2\[nH]c(=O)/c(=C/c3ccc(OC(=O)C(C)(C)C)cc3)[nH]c2=O)cc1` [Compound 82, (3Z,6Z)-3-(4-Acetamidobenzylidene)-6-(4-trimethylacetoxybenzylidene)-2,5-piperazinedione], the Inhibition of PAI-1 in the first S2251 chromogenic substrate assay was 1% (Concentration 12.5 μm), 1% (Concentration 25 μm), 3% (Concentration 50 μm) and 80% (Concentration 100 μm).
On to `CC(=O)Oc1cccc(/C=c2\[nH]c(=O)/c(=C/c3ccccc3)[nH]c2=O)c1` [Compound 31, (3Z,6Z)-3-(3-Acetoxybenzylidene)-6-benzylidene-2,5-piperazinedione], for which the Inhibition of PAI-1 in the first S2251 chromogenic substrate assay came out at 0% (Concentration 6.25 μm); 1% (Concentration 12.5 μm); 2% (Concentration 25 μm); 12% (Concentration 50 μm); 58% (Concentration 100 μm).
For `CC(=O)Nc1ccc(/C=c2\[nH]c(=O)/c(=C/c3ccc(F)cc3F)[nH]c2=O)cc1` [Compound 77] the same measures were 1%, 61%, 80%, 66% and 33%.
Consider `CCCCOc1ccc(/C=c2\[nH]c(=O)/c(=C/c3ccc(OC)cc3)[nH]c2=O)cc1` [Compound 47, (3Z,6Z)-3-(4-Butoxybenzylidene)-6-(4-methoxybenzylidene)-2,5-piperazinedione], for which the Inhibition of PAI-1 in the first S2251 chromogenic substrate assay runs as follows: (Concentration 12.5 μm) 14%; (Concentration 25 μm) 14%; (Concentration 50 μm) 58%; (Concentration 100 μm) 75%.
For `O=c1[nH]/c(=C\c2ccc(F)cc2F)c(=O)[nH]/c1=C\c1ccccc1` [Compound 54, (3Z,6Z)-6-Benzylidene-3-(2,4-difluorobenzylidene)-2,5-piperazinedione], the Inhibition of PAI-1 in the first S2251 chromogenic substrate assay runs as follows: (Concentration 12.5 μm) 0%; (Concentration 25 μm) 1%; (Concentration 50 μm) 0%; (Concentration 100 μm) 50%.
In the case of `COc1ccc(/C=c2\[nH]c(=O)/c(=C/c3ccc(S(C)(=O)=O)cc3)[nH]c2=O)cc1` [Compound 46, (3Z,6Z)-3-(4-Methoxybenzylidene)-6-(4-methylsulfonylbenzylidene)-2,5-piperazinedione], the Inhibition of PAI-1 in the first S2251 chromogenic substrate assay reads like this: (Concentration 12.5 μm) 14%; (Concentration 25 μm) 38%; (Concentration 50 μm) 42%; (Concentration 100 μm) 39%.
Take `CC(=O)Nc1ccc(/C=c2\[nH]c(=O)/c(=C/c3ccc(F)cc3)[nH]c2=O)cc1` [Compound 72, (3Z,6Z)-3-(4-Acetamidobenzylidene)-6-(4-fluorobenzylidene)-2,5-piperazinedione]: the Inhibition of PAI-1 in the first S2251 chromogenic substrate assay (Concentration 3.75 μm) was found to be 2%; the Inhibition of PAI-1 in the first S2251 chromogenic substrate assay (Concentration 7.5 μm) was 1%; the Inhibition of PAI-1 in the first S2251 chromogenic substrate assay (Concentration 15 μm) is 18%; the Inhibition of PAI-1 in the first S2251 chromogenic substrate assay (Concentration 30 μm) came out at 75%; the Inhibition of PAI-1 in the first S2251 chromogenic substrate assay (Concentration 60 μm) is 76%.
